Consider three compounds from patent EP0699675A2, “3-(4-(1-Substituted-4-piperazinyl)butyl)-4-thiazolidinone and related compounds” (HOECHST-ROUSSEL PHARMACEUTICALS INCORPORATED, priority 1994, dated 1996).

For the assay, the system named is CK-1 male mice. Description: climbing mice assay (apomorphine-induced climbing), antipsychotic activity. The conditions noted are these: 30 minutes prior to apomorphine 1.5 mg/kg subcutaneously, climbing scores totaled over readings at 10, 20 and 30 minutes, control group set to 100%. Format: in vivo. Here is the method:
Antipsychotic activity is determined in the climbing mice assay by methods similar to those described by P. Protais, et al., Psychopharmacol., 50, 1 (1976) and B. Costall, Eur. J. Pharmacol., 50, 39 (1978).
The subject CK-1 male mice (23-27 grams) are group-housed under standard laboratory conditions. The mice are individually placed in wire mesh stick cages (4" x 4" by 10") and are allowed one hour for adaptation and exploration of the new environment. Then apomorphine is injected subcutaneously at 1.5 mg/kg, a dose causing climbing in all subjects for 30 minutes. Compounds to be tested for antipsychotic activity are injected intraperitoneally 30 minutes prior to the apomorphine challenge at a screening dose of 10mg/kg.
For evaluation of climbing, 3 readings are taken at 10,20 and 30 minutes after apomorphine administration according to the following scale:
Mice consistently climbing before the injection of apomorphine are discarded.
With full-developed apomporphine climbing, the animals are hanging onto the cage walls, rather motionless, over longer periods of time. By contrast, climbs due to mere motor stimulation usually last only a few seconds.
The climbing scores are individually totaled (maximum score: 6 per mouse over 3 readings) and the total score of the control group (vehicle intraperitoneally-apomorphine subcutaneously) is set to 100%. ED₅₀ value with 95% confidence limits, calculated by a linear regression analysis of some of the compounds of this invention.

Each structure is given as a SMILES string. Counter-ions that a name gives are not always drawn.

As for `CC1SC(C)(C)C(=O)N1CCCCN1CCC(c2csc3ccccc23)CC1.O=C(O)/C=C\C(=O)O` (stereo not drawn) [3-[4-[4-(Benzo[b]thien-3-yl)-1-piperidinyl]butyl]-2,5,5-trimethyl-4-thiazolidinone maleate], the “Antipsychotic Activity Score” value (Dose 9.5 mg/kg ip) came out at 50%.
For `CC1SC(C)(C)C(=O)N1CCCCN1CCC(c2cc3ccccc3s2)CC1` (stereo not drawn) [3-[4-[4-[Benzo[b]thien-2yl)-1-piperidinyl[butyl]-2,5,5-trimethyl-4-thiazolidinone hydrochloride], where the note is “Dose 20 mg/kg ip”, the “Antipsychotic Activity Score” value was found to be 44%.
The same measure, in the same setting: the figure for `CC1(C)C(=O)N(CCCCN2CCC(c3csc4ccccc34)CC2)CS1(=O)=O` [3-[4-[4-[Benzo[b]thien-3-yl)-1-piperidinyl]butyl]-5,5-dimethyl-1,1-dioxo-4-thiazolidinone] is 98%.
